From US20030215472A1, “Methods and compositions employing a dialkyl amide” (priority 2002, published 2003)

Legend:
gram-positive bacteria = assay: Killing and suppressing gram-positive bacteria; type: cell-based
C. xerosis ATCC#373 [1] = assay: MLC by swabbing of the zones, C. xerosis; type: cell-based, Corynebacterium xerosis; design: key: (+): MLC results are recorded as positive or negative for growth; (−): MLC results are recorded as positive or negative for growth
Method: (§1) For MLC Preparation, swabbing of the zones was performed to calculate MLC results. […] These swabs were then placed in TSA or BHIB for incubation. M. luteus tubes were incubated for 48 hours at 30° C. to 35° C. P. acnes tubes were incubated for 5-7 days at 35° C. to 38° C. anaerobically, C. xerosis tubes were incubated aerobically at 36° C. to 38° C. Tubes were inspected visually for growth and indicated below. Numbers indicate the average of the zone sizes on the two plates (in millimeters) as per MIC dilution. MLC results are recorded as positive or negative for growth.

C. xerosis ATCC#373 [2] = assay: MIC via Zone of Inhibition testing, C. xerosis; type: cell-based, Corynebacterium xerosis
Method: (§2) For culture preparation, an overnight Tryptic Soy Agar (TSA) culture was grown with M. luteus ATCC #10240. This culture was washed and diluted with saline to 85% transmittance at 530 nm. An overnight anaerobic culture of P. acnes ATCC#11827 was prepared in Brain Heart Infusion Broth (BHIB). This was washed with saline and diluted to 85% transmittance at 530 nm. An overnight aerobic culture of C. xerosis ATCC#373 was also grown in BHIB, washed with saline and diluted to 85% transmittance at 530 nm. These cultures were used as inocula. Three sets of nine different dilutions of sample were prepared for MIC results using TSA or BHIB as follows: (1) 2.0 grams sample+8.0 mL media=1:5 or 20%; (2) 2.0 mL of #1+8.0 mL media=1:25 or 4%; (3) 2.0 mL of #2+8.0 mL media=1:125 or 0.8%; (4) 2.0 mL of #3+8.0 mL media=1:625 or 0.16%; (5) 2.0 mL of #4+8.0 mL media=1:3125 or 0.032%; (6) 2.0 mL of #5+8.0 mL media=1:15625 or 0.0064%; (7) 2.0 mL of #6+8.0 mL media=1:78125 or 0.00128%; (8) 2.0 mL of #7+8.0 mL media=1:390625 or 0.000256%; and (9) 2.0 mL of #8+8.0 mL media=1:1953125 or 0.0000512%.
(§3) The product dilutions were dispensed onto Zone of Inhibition plates. TSA and BHIB plates were prepared by using the base and seed method. Seed consisted of 2.0 mL of inoculum per 20.0 mL of TSA or BHIB used. A single penicylinder placed in the center of the plate when agar was solidified. Each penicylinder was inoculated with 200 μL of the MIC dilutions listed above; this procedure was performed in duplicate. Control plates were performed simultaneously; also using the base and seed method. M. luteus plates were incubated for 48 hours at 30° C. to 35° C. P. acnes plates were incubated for 5-7 days 36° C. to 38° C. anaerobically, C. xerosis plates were incubated aerobically at 36° C. to 38° C. Plates were measured for zones and calculated in millimeters.
as §1

P. acnes ATCC#11827 [3] = assay: MLC by swabbing of the zones, P. acnes; type: cell-based, Propoinibacterium acnes; design: key: (+): MLC results are recorded as positive or negative for growth; (−): MLC results are recorded as positive or negative for growth
Method: as §1

[4] = test system: Micrococcus luteus ATCC #10240; assay: MLC by swabbing of the zones, M. luteus; type: cell-based; design: key: (+): MLC results are recorded as positive or negative for growth; (−): MLC results are recorded as positive or negative for growth
Method: as §1

[5] = Solubility in cosmetic solvents; type: physicochemical
P. acnes ATCC#11827 [6] = assay: MIC via Zone of Inhibition testing, P. acnes; type: cell-based, Propoinibacterium acnes
Method: as §2, §3, §1

[7] = test system: Micrococcus luteus ATCC #10240; assay: MIC via Zone of Inhibition testing, M. luteus; type: cell-based
Method: as §2, §3
For MLC Preparation, swabbing of the zones was performed to calculate MLC results. […] These swabs were then placed in TSA or BHIB for incubation. […] MLC results are recorded as positive or negative for growth.

human skin = assay: Irritation and sensitization of human skin; type: in vivo; conditions: at levels effective for suppressing malodor formation

CCCCCCCCCC(=O)N(C)C [dimethyl capramide, N,N-dimethyldecanamide]
killing and suppressing gram-positive bacteria (gram-positive bacteria): effective in killing and suppressing
MLC Results, growth from swabbed zone (C. xerosis ATCC#373 [1]; dilution 1:5 (20%)): (−)
MLC Results, growth from swabbed zone (C. xerosis ATCC#373 [1]; dilution 1:25 (4%)): (−)
MLC Results, growth from swabbed zone (C. xerosis ATCC#373 [1]; dilution 1:125 (0.8%)): (−)
MLC Results, growth from swabbed zone (C. xerosis ATCC#373 [1]; dilution 1:625 (0.16%)): (+)
MLC Results, growth from swabbed zone (C. xerosis ATCC#373 [1]; dilution 1:3125 (0.032%)): (+)
MIC/Zone of Inhibition, average zone size (C. xerosis ATCC#373 [2]; dilution 1:5 (20%)): 20.2 millimeters
MIC/Zone of Inhibition, average zone size (C. xerosis ATCC#373 [2]; dilution 1:25 (4%)): 13.9 millimeters
MIC/Zone of Inhibition, average zone size (C. xerosis ATCC#373 [2]; dilution 1:125 (0.8%)): 17.3 millimeters
MIC/Zone of Inhibition, average zone size (C. xerosis ATCC#373 [2]; dilution 1:625 (0.16%)): 8.6 millimeters
MIC/Zone of Inhibition, average zone size (C. xerosis ATCC#373 [2]; dilution 1:3125 (0.032%)): 7.2 millimeters
MLC Results, growth from swabbed zone (P. acnes ATCC#11827 [3]; dilution 1:5 (20%)): (−)
MLC Results, growth from swabbed zone (P. acnes ATCC#11827 [3]; dilution 1:25 (4%)): (−)
MLC Results, growth from swabbed zone (P. acnes ATCC#11827 [3]; dilution 1:125 (0.8%)): (+)
MLC Results, growth from swabbed zone (P. acnes ATCC#11827 [3]; dilution 1:625 (0.16%)): (+)
MLC Results, growth from swabbed zone ([4]; dilution 1:5 (20%)): (−)
MLC Results, growth from swabbed zone ([4]; dilution 1:25 (4%)): (+)
MLC Results, growth from swabbed zone ([4]; dilution 1:125 (0.8%)): (+)
solubility ([5]; in cyclomethicone): greater than 50 wt. %
solubility ([5]; in propylene glycol): greater than 50 wt. %
MIC/Zone of Inhibition, average zone size (P. acnes ATCC#11827 [6]; dilution 1:5 (20%)): 21.2 millimeters
MIC/Zone of Inhibition, average zone size (P. acnes ATCC#11827 [6]; dilution 1:25 (4%)): 23.8 millimeters
MIC/Zone of Inhibition, average zone size (P. acnes ATCC#11827 [6]; dilution 1:125 (0.8%)): 18.0 millimeters
MIC/Zone of Inhibition, average zone size (P. acnes ATCC#11827 [6]; dilution 1:625 (0.16%)): 8.1 millimeters
MIC/Zone of Inhibition, average zone size ([7]; dilution 1:5 (20%)): 14.7 millimeters
MIC/Zone of Inhibition, average zone size ([7]; dilution 1:25 (4%)): 14.2 millimeters
MIC/Zone of Inhibition, average zone size ([7]; dilution 1:125 (0.8%)): 13.6 millimeters
irritation of human skin (human skin): non-irritating
